# Source: patent publication EP0383170A2, “Methotrexate linked to polymers, process for their preparation, and use” (HOECHST AKTIENGESELLSCHAFT, priority 1989, dated 1990)
# Key:
# [1] = free methotrexate; the 330 mg/kg dose is said to lie above it; cited from earlier work
# [2] = tested on: L1210; test: Proliferation test (formazan dye reduction), 72 h incubation; assay type: cell-based; conditions: L1210 cells
# Excerpt: (§1) Proliferationstest (Methotrexat-Reduktion)
# (§2) Kontrollexperimente erhalten anstelle der Testsubstanz lediglich Wachstumsmedium. […] Flow bei einer Wellenlänge von 492 nm gemessen.
# (§3) Für wiederholte Untersuchungen beträgt der Variationskoeffizient weniger als 15 %. Tabelle 1
# [3] = tested on: A 549; test: as above; assay type: cell-based; conditions: A 549 cells
# Excerpt: as §1, §2, §3
# [4] = tested on: HT 29; test: as above; assay type: cell-based; conditions: HT 29 cells
# Excerpt: as §1, §2, §3
# [5] = tested on: L1210 Leukämie; test: In vivo efficacy on L1210 leukaemia in mice (median survival time, T/C); conditions: for optimale Dosis: dose giving the greatest antitumoral effect
# Protocol: Aszites Flüssigkeit wird 7 Tage nach der Tumor-Implantation unter sterilen Bedingungen aus DBA2 Mäusen entnommen (weiblich, 18 bis 20 g). Die Aszites Flüssigkeit wird dreimal mit PBS (phosphate buffered saline) gewaschen, gezählt und anschließend in PBS verdünnt bis zu einer Endkonzentration von 10⁶ Zellen pro 0,2 ml.
# 10⁶ Zellen in 0,2 ml PBS werden DBA2 Mäusen (weiblich, 18 bis 20 g) intraperitoneal appliziert. Dieser Transfer wird einmal wöchentlich wiederholt.
# 10⁵ Zellen der Aszites Flüssigkeit in 0,2 ml PBS werden BDF1 Mäusen (weiblich, 18 bis 20 g) intraperitoneal appliziert. 6 Tiere werden für jede Substanzkonzentration sowie für die Kontrolle eingesetzt.
# a) Die Tiere werden an Tag 1 und Tag 5 nach der Tumorzellenimplantation gewogen. Gewichtsverlust von mehr als 20 % an Tag 5 wird als Indikator eines toxischen Substanzeffektes verwendet.
# b) Am Ende des Experiments (Tod aller Tiere oder Erreichen von Tag 60) wird die mediane Überlebenszeit der Behandlungsgruppen bestimmt, sofern diese 65 % überlebende Tiere am Tag 5 enthielten. Die Ermittlung der medianen Überlebenszeit erfolgt entsprechend der Formel: [formula]
# In dieser Formel bedeutet X den frühesten Tag, an dem die Zahl der überlebenden Tiere N/2 und Y den frühesten Tag, an dem die Zahl der überlebenden Tiere (N/2)-1 ist. In dem Fall, daß N eine ungerade Zahl ist, entspricht die mediane Überlebenszeit dem Zeitpunkt X.
# Die mediane Überlebenszeit wird ausschließlich für im Verlauf des Experiments sterbende Tiere bestimmt. Geheilte Tiere (long time survivors, LTS) werden von der Bestimmung der medianen Überlebenszeit ausgeschlossen und getrennt aufgeführt.
# Aus der medianen Überlebenszeit der behandelten Gruppen (MSTTumor) und Kontrollgruppen (MSTControl) wird der antitumorale Effekt-Tumor/control (T/C) entsprechend der Formel [formula] bestimmt. T/C Werte von mehr als 125 % werden als Indikator einer signifikanten antitumoralen Wirksamkeit der Testverbindung angesehen. Die Dosis, die jeweils den größten antitumoralen Effekt bewirkt (optimale Dosierung) ist in Tab. 2 aufgeführt. Noch lebende Tiere an Tag 60 werden als geheilt betrachtet (LTS). Ergebnisse: s. Tabelle 2
# [6] = L1210, 3xip/ip/Q3D, at optimal dose
structure (smiles),measurement,setting,value
"CN(Cc1cnc2nc(N)nc(N)c2n1)c1ccc(C(=O)N[C@@H](CCC(=O)O)C(=O)O)cc1 [Methotrexat, N-[4-[[(2,4-diamino-6-pteridinyl)-methyl]methylamino]benzoyl]-glutaminsäure]",LD₅₀,[1],< 330 mg/kg
same,IC₅₀,[2],"0,01 µg/ml"
same,IC₅₀,[3],"0,01 µg/ml"
same,IC₅₀,[4],"0,008 µg/ml"
same,Wirkung (T/C %),"[5]; L1210, 1xip/ip, at optimal dose",123%
same,optimale Dosis,"[5]; L1210, 1xip/ip",100 mg polymerfixiertes Produkt/kg Körpergewicht
same,Wirkung (T/C %),[5]; [6],378%
same,toxisch,[5]; [6],1
same,Heilungen,"[5]; L1210, 3xip/ip/Q3D, at optimal dose, animals alive at day 60 (LTS)",5/6
same,optimale Dosis,"[5]; L1210, 3xip/ip/Q3D",80 mg polymerfixiertes Produkt/kg Körpergewicht
same,Lebensverlängerungen gegenüber unbehandelten Kontrollen,"[5]; mice with L1210 leukaemia, single i.p. application of 60 mg/kg body weight methotrexate equivalent",nicht wirksam
